How the values were obtained:
[1] = Stability and hygroscopicity of the bulk monosodium salt carbapenem on storage; assay type: physicochemical
Procedure: and a process for the preparation thereof.
During the manufacture of bulk compound products such as beta-lactam and carbapenem antibiotics, the pharmaceutical compound is prepared by chemical synthesis from raw materials in large quantities. As with many carbapenem compounds, the compound in accordance with formula I is prepared in large batches as a monosodium salt. The compound is a weakly crystalline solid, hygroscopic at ambient conditions, and is unstable at room and refrigerated temperatures. Therefore, the bulk compound must be stored at a temperature of about −20° C. to prevent degradation into dimer and open ring by-products.

[2] = cited from earlier work

SMILES: CC(O)C1C(=O)N2C(C(=O)[O-])=C(SC3CNC(C(=O)Nc4cccc(C(=O)O)c4)C3)C(C)C12.[Na+] (stereo not shown) [formula I]
- hygroscopicity ([1]; ambient conditions, weakly crystalline solid): hygroscopic
- stability at room and refrigerated temperatures ([1]; bulk monosodium salt): unstable
- stability at ambient conditions ([2]; 20° C. and 1 atmosphere, monosodium salt): relatively unstable
- stability at temperatures above about −20° C. ([2]; undergoes dimerization and hydrolysis to dimers and open ring by-products): remains unstable

From US6548492B1, “Process for formulation of carbapenem antibiotic compositions” (Merck & Co., Inc., priority 1999, dated 2003)
